# Data from patent publication US10080366B2, “Agent for increasing sugar content in fruit” (RIKEN, priority 2012, dated 2018).
# Where two headings read alike, the source gives them in different places.
# Tests used:
# [1] = system: fruit of grape (variety: Red Globe)
# Experimental: Agents for increasing a sugar content in a fruit (containing Sorbon T-20 as a spreader/sticker at a final concentration of 200 μL/L) diluted with water to have the concentrations of potassium hydrogen carbonate shown in Table 4 were prepared. The mass of fruit of grape (variety: Red Globe) purchased on the market was measured. Then, the prepared agents for increasing a sugar content in a fruit were applied by spraying to the fruit of grape, which was then allowed to stand in an air-conditioned greenhouse (temperature: 25° C.). The mass of the fruit of grape was measured over time (date of application: Mar. 10, 2011). In addition, as a control, the mass of untreated grape was measured on each date of measurement in the same manner. […] Note that the decrease ratio (cumulative, %) represents the percentage (%) of the mass decreased from the date of application to each of the dates of measurement, and the decrease ratio (%/day) represents the average ratio (%) of decrease in mass in a period between each of the dates of measurement and the preceding date of measurement (=(the mass (g) on the preceding date of measurement of each of the dates of measurement−the mass (g) on the date of measurement)/the mass (g) on the preceding date of measurement of the date of measurement/the number of days from the preceding date of measurement of the date of measurement to the date of measurement×100).
# [2] = system: fruit of trellised grape (variety: Pinot noir)
# Experimental: To fruit of trellised grape (variety: Pinot noir), an aqueous potassium hydrogen carbonate solution (20 g/L) was applied three times at intervals of one week. The fruit was harvested 21 days after the first application, and the sugar content, acidity, and amino acid concentration were measured. In addition, the harvested fruit was kept in an air-conditioned greenhouse (25° C.) for 10 days, and the drying state of the fruit was observed.
# [3] = system: grapes (varieties: Chardonnay, Pinot noir, Merlot, and Cabernet Sauvignon); conditions: for sugar content in fruit compared with untreated: 3000 L/ha, entire vines, repeated, all four varieties
# Experimental: To the entire vines including leaves and stems of grapes (varieties: Chardonnay, Pinot noir, Merlot, and Cabernet Sauvignon, 7 years old) in a farm field, an agent (containing Sorbon T-20 as a spreader/sticker at a concentration of 200 μL/L) for increasing a sugar content in a fruit diluted with water to have a potassium hydrogen carbonate concentration of 5 g/L or 10 g/L was applied in a sufficient amount (3000 L/ha (in this case, the amount of potassium hydrogen carbonate was 15 kg/ha for the 5 g/L sample or 30 kg/ha for the 10 g/L sample) each time. The application was repeatedly conducted at intervals of approximately 2 weeks or approximately 1 week as shown in FIGS. 1 to 4. The sugar concentration in the fruit was measured over time. As a control, unapplied vines were provided. The sampling was started before the first application, and a sample was collected before each application, and measured for the sugar content. Three vines were used for each treated group. Note that the expected harvest dates were September 20 for Chardonnay, October 10 for Merlot, October 20 for Cabernet Sauvignon, and September 30 for Pinot noir.
# For the measurement of the sugar content, three clusters were taken from each of the treated vines on each of the dates of measurement, and the juice was squeezed and measured for the Brix sugar content (%) with a refractometer for sugar content (manufactured by Atago Co., Ltd.). Likewise, the acidity (%) was also measured with an acidity meter (manufactured by Atago Co., Ltd.).
# [4] = system: fruit of grape (variety: Steuben); conditions: 10 g/L
# Experimental: An agent for increasing a sugar content in a fruit (containing Sorbon T-20 as a spreader/sticker at a final concentration of 200 μL/L) diluted with water to contain potassium hydrogen carbonate at 10 g/L was prepared. The mass of fruit of grape (variety: Steuben) purchased on the market was measured. Then, the prepared agent for increasing a sugar content in a fruit was applied by spraying to the fruit of grape. The fruit of grape was allowed to stand in an air-conditioned greenhouse (temperature: 25° C.), and the mass was measured over time (date of application: Feb. 7, 2011). In addition, as a control, the mass of untreated grape was measured on each of the dates of measurement in the same manner.
structure (smiles),measurement,setting,value
"O=C([O-])O.[K+] [Potassium hydrogen carbonate, potassium hydrogen carbonate]",ratio of decrease in mass compared with untreated,[1]; 5 g/L and 10 g/L,higher ratios of decrease in mass than the untreated fruit
same,Mass,"[1]; 5 g/L, Mar. 10 (date of application)",240.4 g
same,Decrease ratio (%/day),"[1]; 5 g/L, Mar. 11",2.6 %/day
same,Decrease ratio (cumulative %),"[1]; 5 g/L, Mar. 11",2.6%
same,Mass,"[1]; 5 g/L, Mar. 11",234.1 g
same,Decrease ratio (%/day),"[1]; 5 g/L, Mar. 14",2.5 %/day
same,Decrease ratio (cumulative %),"[1]; 5 g/L, Mar. 14",9.9%
same,Mass,"[1]; 5 g/L, Mar. 14",216.7 g
same,Decrease ratio (%/day),"[1]; 5 g/L, Mar. 15",2.5 %/day
same,Decrease ratio (cumulative %),"[1]; 5 g/L, Mar. 15",12.1%
same,Mass,"[1]; 5 g/L, Mar. 15",211.4 g
same,Decrease ratio (%/day),"[1]; 5 g/L, Mar. 16",2.2 %/day
same,Decrease ratio (cumulative %),"[1]; 5 g/L, Mar. 16",14.0%
same,Mass,"[1]; 5 g/L, Mar. 16",206.7 g
same,Decrease ratio (%/day),"[1]; 5 g/L, Mar. 18",2.1 %/day
same,Decrease ratio (cumulative %),"[1]; 5 g/L, Mar. 18",17.7%
same,Mass,"[1]; 5 g/L, Mar. 18",197.8 g
same,Decrease ratio (%/day),"[1]; 5 g/L, Mar. 22",2.0 %/day
same,Decrease ratio (cumulative %),"[1]; 5 g/L, Mar. 22",24.1%
same,Mass,"[1]; 5 g/L, Mar. 22",182.4 g
same,Decrease ratio (%/day),"[1]; 5 g/L, Mar. 23",2.8 %/day
same,Decrease ratio (cumulative %),"[1]; 5 g/L, Mar. 23",26.3%
same,Mass,"[1]; 5 g/L, Mar. 23",177.3 g
same,Decrease ratio (%/day),"[1]; 5 g/L, Mar. 24",2.2 %/day
same,Decrease ratio (cumulative %),"[1]; 5 g/L, Mar. 24",27.8%
same,Mass,"[1]; 5 g/L, Mar. 24",173.5 g
same,Decrease ratio (%/day),"[1]; 5 g/L, Mar. 30",2.3 %/day
same,Decrease ratio (cumulative %),"[1]; 5 g/L, Mar. 30",37.8%
same,Mass,"[1]; 5 g/L, Mar. 30",149.4 g
same,Mass,"[1]; 10 g/L, Mar. 10 (date of application)",200.5 g
same,Decrease ratio (%/day),"[1]; 10 g/L, Mar. 11",2.9 %/day
same,Decrease ratio (cumulative %),"[1]; 10 g/L, Mar. 11",2.9%
same,Mass,"[1]; 10 g/L, Mar. 11",194.8 g
same,Decrease ratio (%/day),"[1]; 10 g/L, Mar. 14",3 %/day
same,Decrease ratio (cumulative %),"[1]; 10 g/L, Mar. 14",11.6%
same,Mass,"[1]; 10 g/L, Mar. 14",177.2 g
same,Decrease ratio (%/day),"[1]; 10 g/L, Mar. 15",3.3 %/day
same,Decrease ratio (cumulative %),"[1]; 10 g/L, Mar. 15",14.5%
same,Mass,"[1]; 10 g/L, Mar. 15",171.4 g
same,Decrease ratio (%/day),"[1]; 10 g/L, Mar. 16",2.9 %/day
same,Decrease ratio (cumulative %),"[1]; 10 g/L, Mar. 16",17.0%
same,Mass,"[1]; 10 g/L, Mar. 16",166.5 g
same,Decrease ratio (%/day),"[1]; 10 g/L, Mar. 18",2.7 %/day
same,Decrease ratio (cumulative %),"[1]; 10 g/L, Mar. 18",21.5%
same,Mass,"[1]; 10 g/L, Mar. 18",157.4 g
same,Decrease ratio (%/day),"[1]; 10 g/L, Mar. 22",2.5 %/day
same,Decrease ratio (cumulative %),"[1]; 10 g/L, Mar. 22",29.5%
same,Mass,"[1]; 10 g/L, Mar. 22",141.3 g
same,Decrease ratio (%/day),"[1]; 10 g/L, Mar. 23",3.6 %/day
same,Decrease ratio (cumulative %),"[1]; 10 g/L, Mar. 23",32.0%
same,Mass,"[1]; 10 g/L, Mar. 23",136.3 g
same,Decrease ratio (%/day),"[1]; 10 g/L, Mar. 24",2.8 %/day
same,Decrease ratio (cumulative %),"[1]; 10 g/L, Mar. 24",33.9%
same,Mass,"[1]; 10 g/L, Mar. 24",132.5 g
same,Decrease ratio (%/day),"[1]; 10 g/L, Mar. 30",2.9 %/day
same,Decrease ratio (cumulative %),"[1]; 10 g/L, Mar. 30",45.3%
same,Mass,"[1]; 10 g/L, Mar. 30",109.7 g
same,Acidity,"[2]; 20 g/L x3, at harvest",0.8
same,Amino acid concentration,"[2]; 20 g/L x3, at harvest",2800 µg/L
same,State 10 days after harvest (drying state),"[2]; 20 g/L x3, kept in greenhouse (25° C.) for 10 days",dried faster than the untreated grape
same,Sugar content (%),"[2]; 20 g/L, three times at intervals of one week, at harvest, 21 days after first application",46%
same,acidity compared with untreated,[3]; 5 g/L or 10 g/L,kept equal to or slightly higher than that of the untreated group
same,sugar content in fruit compared with untreated,[3]; 5 g/L,greater increase in sugar content than the untreated fruit of grape
same,sugar content in fruit compared with untreated,[3]; 10 g/L,greater increase in sugar content than the untreated fruit of grape
same,increase of amount of transpiration in comparison with untreated,[4]; 7 days,approximately 25%
same,water lost per 100 g of grape,"[4]; 7 days, decrease in mass assumed to be transpiration",approximately 25 ml
same,"mass of fruit per 100 g on date of application, 1 day later",[4]; Feb. 8,96.2 g
same,"mass of fruit per 100 g on date of application, 2 days later",[4]; Feb. 9,92.1 g
same,"mass of fruit per 100 g on date of application, 3 days later",[4]; Feb. 10,88.6 g
same,"mass of fruit per 100 g on date of application, 7 days later",[4]; Feb. 14,74.9 g
same,sugar content 7 days later (calculated),[4]; assuming 15% on date of application,20.0%
